The values below come from ChEMBL document CHEMBL5303573, “Mapping human microbiome drug metabolism by gut bacteria and their genes” (Nature, 2019).

Data set [1] is described as follows: The drug is tested on Bifidobacterium breve strain: DSM20213 for biotransformation. The drug concentrations were measured before and after a 12-h incubation by liquid-chromatography-coupled mass spectrometry (LC–MS). Particulars: 2 µM.
Data set [2] in a line: The drug is tested on Bacteroides fragilis strain: HMW610 for biotransformation. The drug concentrations were measured before and after a 12-h incubation by liquid-chromatography-coupled mass spectrometry (LC–MS). Particulars: 2 µM.
Data set [3] can be described thus: The drug is tested on Bacteroides fragilis strain: HMW615 for biotransformation. The drug concentrations were measured before and after a 12-h incubation by liquid-chromatography-coupled mass spectrometry (LC–MS). The following applies: 2 µM.
A short description of data set [4]: The drug is tested on Bacteroides sp. WH2 strain: WH2 for biotransformation. The drug concentrations were measured before and after a 12-h incubation by liquid-chromatography-coupled mass spectrometry (LC–MS). Particulars: bacteroides sp. wh2, 12 h, 2 µM.
The nature of data set [5]: The drug is tested on Bacteroides xylanisolvens strain: DSM18836 for biotransformation. The drug concentrations were measured before and after a 12-h incubation by liquid-chromatography-coupled mass spectrometry (LC–MS). Particulars: 2 µM.
The nature of data set [6]: The drug is tested on Blautia luti strain: DSM14534 for biotransformation. The drug concentrations were measured before and after a 12-h incubation by liquid-chromatography-coupled mass spectrometry (LC–MS). Also on record: dose 2 uM, timepoint 0 vs 12 hours. Particulars: 2 µM. The class given is ADME.
Data set [7] can be described thus: The drug is tested on Clostridium ramosum strain: DSM1402 for biotransformation. The drug concentrations were measured before and after a 12-h incubation by liquid-chromatography-coupled mass spectrometry (LC–MS). The following applies: thomasclavelia ramosa, 2 µM.
A short description of data set [8]: The drug is tested on Clostridium sporogenes strain: ATCC15579 for biotransformation. The drug concentrations were measured before and after a 12-h incubation by liquid-chromatography-coupled mass spectrometry (LC–MS). Particulars: 2 µM.
Data set [9] in a line: The drug is tested on Dorea formicigenerans strain: ATCC27755 for biotransformation. The drug concentrations were measured before and after a 12-h incubation by liquid-chromatography-coupled mass spectrometry (LC–MS). The following applies: 2 µM.
Data set [10] is described as follows: The drug is tested on Eubacterium ventriosum strain: ATCC27560 for biotransformation. The drug concentrations were measured before and after a 12-h incubation by liquid-chromatography-coupled mass spectrometry (LC–MS). The class given is ADME. The arrangement: dose 2 uM, timepoint 0 vs 12 hours. Particulars: 2 µM.
Data set [11] is described as follows: The drug is tested on Ruminococcus gnavus strain: ATCC29149 for biotransformation. The drug concentrations were measured before and after a 12-h incubation by liquid-chromatography-coupled mass spectrometry (LC–MS). The following applies: mediterraneibacter gnavus, 2 µM.
A short description of data set [12]: The drug is tested on Ruminococcus lactaris strain: ATCC29176 for biotransformation. The drug concentrations were measured before and after a 12-h incubation by liquid-chromatography-coupled mass spectrometry (LC–MS). The following applies: 2 µM.
A short description of data set [13]: The drug is tested on Ruminococcus torques strain: ATCC27756 for biotransformation. The drug concentrations were measured before and after a 12-h incubation by liquid-chromatography-coupled mass spectrometry (LC–MS). The arrangement: dose 2 uM, timepoint 0 vs 12 hours. Particulars: 2 µM. The class given is ADME.
The nature of data set [14]: The drug is tested on Edwardsiella tarda strain: ATCC23685 for biotransformation. The drug concentrations were measured before and after a 12-h incubation by liquid-chromatography-coupled mass spectrometry (LC–MS). The following applies: 2 µM.
The nature of data set [15]: The drug is tested on Enterobacter cancerogenus strain: ATCC35316 for biotransformation. The drug concentrations were measured before and after a 12-h incubation by liquid-chromatography-coupled mass spectrometry (LC–MS). Particulars: 2 µM.
For data set [16] the following is noted: bacteroides thetaiotaomicron, 12 h, 2 µM.
Description: The drug is tested on Bacteroides thetaiotaomicron strain: 3731 for biotransformation. The drug concentrations were measured before and after a 12-h incubation by liquid-chromatography-coupled mass spectrometry (LC–MS)
For data set [17] the following is noted: roseburia intestinalis, 12 h, 2 µM.
Description: The drug is tested on Roseburia intestinalis strain: L1-82 for biotransformation. The drug concentrations were measured before and after a 12-h incubation by liquid-chromatography-coupled mass spectrometry (LC–MS)
Data set [18] is described as follows: The drug is tested on Anaerotruncus colihominis strain: DSM17241 for biotransformation. The drug concentrations were measured before and after a 12-h incubation by liquid-chromatography-coupled mass spectrometry (LC–MS). Particulars: 2 µM.
The conditions of data set [19]: bacteroides intestinalis, 12 h, 2 µM.
Description: The drug is tested on Bacteroides intestinalis strain: DSM17393 for biotransformation. The drug concentrations were measured before and after a 12-h incubation by liquid-chromatography-coupled mass spectrometry (LC–MS)
For data set [20] the following is noted: limosilactobacillus reuteri cf48-3a, 12 h, 2 µM.
Description: The drug is tested on Lactobacillus reuteri CF48-3A strain: BEI HM-102 for biotransformation. The drug concentrations were measured before and after a 12-h incubation by liquid-chromatography-coupled mass spectrometry (LC–MS)

Take `CC1OC(OC2C(O)CC(OC3C(O)CC(OC4CCC5(C)C(CCC6C5CCC5(C)C(C7=CC(=O)OC7)CCC65O)C4)OC3C)OC2C)CC(O)C1O` (stereo unspecified): the “Bacterial Biotransformation” value in data set [1] is “Compound NOT metabolized”; in data set [2], “Compound metabolized”; in [3], “Compound metabolized”; in data set [4], “Compound NOT metabolized”; in [5], “Compound metabolized”; in [6], “Compound NOT metabolized”. Besides, the “Bacterial Biotransformation” value in data set [7] is recorded as “Compound NOT metabolized”; in [8] it was “Compound metabolized”; in [9] it was “Compound NOT metabolized”; in data set [10] it was “Compound NOT metabolized”; in data set [11], “Compound NOT metabolized”; in data set [12], “Compound NOT metabolized”. Also, the “Bacterial Biotransformation” value in data set [13], in data set [14], in data set [15], in data set [16] and in [17] was “Compound NOT metabolized” each time.
On to `C#C[C@]1(O)CC[C@H]2[C@@H]3CCC4=CC(=O)CC[C@@H]4[C@H]3CC[C@@]21CC` [LEVONORGESTREL], for which the “Bacterial Biotransformation” value in data set [1] is “Compound NOT metabolized”; in data set [2], “Compound metabolized”; in data set [3] it was “Compound metabolized”; in data set [4] it was “Compound metabolized”; in [5], “Compound metabolized”; in [18], “Compound NOT metabolized”. Also, the “Bacterial Biotransformation” value is “Compound NOT metabolized” in [6]; “Compound NOT metabolized” in data set [7]; “Compound metabolized” in [8]; “Compound NOT metabolized” in [9]; “Compound NOT metabolized” in data set [10]; “Compound metabolized” in [11]. The “Bacterial Biotransformation” value in data set [14] is given as “Compound NOT metabolized”; in data set [15] it was “Compound NOT metabolized”; in data set [19], “Compound NOT metabolized”; in data set [16] it was “Compound metabolized”; in [20] it was “Compound NOT metabolized”.
With `CCN(CC)CCOC(=O)C(Cc1cccc2ccccc12)CC1CCCO1.O=C(O)C(=O)O` (stereo unspecified) [NAFRONYL OXALATE], the “Bacterial Biotransformation” value in data set [1], in [3], in data set [4], in data set [5], in data set [18] and in data set [6] was “Compound NOT metabolized” in each case. In addition, the “Bacterial Biotransformation” value in [7], in [8], in data set [9], in data set [10], in data set [11] and in data set [12] was “Compound NOT metabolized” each time. Also, the “Bacterial Biotransformation” value in data set [13], in [14], in data set [15], in data set [19], in data set [16] and in [20] was “Compound NOT metabolized” in each case. Further, the “Bacterial Biotransformation” value in [17] is given as “Compound NOT metabolized”.
For `CC(C)[C@H]1CC[C@H](C(=O)N[C@H](Cc2ccccc2)C(=O)O)CC1` [NATEGLINIDE], the “Bacterial Biotransformation” value in data set [1] is given as “Compound NOT metabolized”; in data set [2], “Compound metabolized”; in [3] it was “Compound metabolized”; in [4], “Compound NOT metabolized”; in [5], “Compound NOT metabolized”; in [18], “Compound NOT metabolized”. In addition, the “Bacterial Biotransformation” value in data set [7], in [8], in data set [9], in [10], in data set [11] and in [12] was “Compound NOT metabolized” in each case. Further, the “Bacterial Biotransformation” value in data set [13], in [14], in [15], in data set [16] and in data set [20] was “Compound NOT metabolized” in each case.
As to `CO[C@]12C[C@@H](COC(=O)c3cncc(Br)c3)CN(C)[C@@H]1Cc1cn(C)c3cccc2c13` [NICERGOLINE], the “Bacterial Biotransformation” value in [1], in data set [3], in data set [4], in data set [5], in [18] and in data set [6] was “Compound NOT metabolized” each time. Also, the “Bacterial Biotransformation” value in [7], in data set [8], in data set [9], in data set [10], in [11] and in data set [12] was “Compound NOT metabolized” throughout. The “Bacterial Biotransformation” value in [13], in data set [14], in data set [15], in data set [19], in data set [16] and in [20] was “Compound NOT metabolized” each time. Besides, the “Bacterial Biotransformation” value in data set [17] is “Compound NOT metabolized”.
For `CCCN1C[C@H](CSC)C[C@@H]2c3cccc4[nH]cc(c34)C[C@H]21.CS(=O)(=O)O` [PERGOLIDE MESYLATE], the “Bacterial Biotransformation” value in data set [1], in data set [3], in data set [4], in data set [5], in [18] and in data set [6] was “Compound NOT metabolized” each time. Besides, the “Bacterial Biotransformation” value in data set [7], in data set [8], in data set [9], in [10], in [11] and in [13] was “Compound NOT metabolized” in each case. Moreover, the “Bacterial Biotransformation” value in [15], in data set [19], in data set [16], in data set [20] and in data set [17] was “Compound NOT metabolized” throughout.
